These results are taken from US20040242693A1, “Optically active mandelic acid and its derivative, and method for crystallization thereof” (priority 2001, published 2004).

What all share (type): physicochemical
One series in a line: Appearance of crystals. The following applies: dried crystals. On the procedure:
Subsequently, the (R)-2-chloromandelic acid crystals obtained in Examples 1 to 6 and Comparative examples 1 and 2 were measured regarding appearance, water content, filling density, compression rate, and particle size distribution. Each of the above items was measured according to the following methods.

A short description of series [1]: Measurement of water content (Karl Fischer method). The following applies: for Water content: dried crystals, Karl Fischer. On the procedure: Measurement of Water Content
Water content was measured by the Karl Fischer method.

The nature of series [2]: Adhesiveness (crystals adhering to test tube wall). The settings on record: weight of adhering crystals / weight filled, test tube 16 mm. The procedure: Chloromandelic acid crystals were naturally dropped in a dry test tube having an inside diameter of 16 mm, so that the height of the crystals became approximately 10 cm. Thereafter, the test tube containing chloromandelic acid crystals was slowly inverted, so that the test tube was completely turned upside down and the crystals were dropped. Thereafter, the weight of the test tube was measured, and the weight of chloromandelic acid crystals adhered to the inner wall of the test tube was obtained. The ratio (%) of the weight of the adhering crystals to the weight of the initially filled chloromandelic acid crystals was defined as an index of adhesiveness.

Series [3] is described as follows: Measurement of compression rate. The settings on record: (volume 1−volume 2)/volume 1. On the procedure:
Measurement of Compression Rate
An approximately 7-cm^3 chloromandelic acid crystal was passed through a funnel with a diameter of 9 mm, and it was naturally dropped into a 10 ml measuring cylinder from a height of 20 cm, so that the volume of the crystals was measured (volume 1). Thereafter, the crystals in the measuring cylinder were compressed with a glass rod until their volume was not reduced, and the volume after the compression was measured (volume 2). Compression rate was calculated according to the following formula.
Compression rate=(volume 1−volume 2)/volume 1

A short description of series [4]: Flowability (flow limit diameter through glass funnels). The settings on record: minimum funnel inside diameter without blockage in 5 tests, 15 g crystals. The procedure: Glass funnels obtained by connecting glass tubes (cylindrical portions) having inside diameters of 4, 5, 6, 8, 9 and 11 mm with the edges of cones with apical angles of 60° were used. The outlet of each funnel (outlet of cylindrical portion) was closed. […] During this process, the funnel should not be shaken, and chloromandelic acid crystals should not be pushed into the funnel by compression. Thereafter, each funnel containing chloromandelic acid crystals was left at rest, the outlet of the cylindrical portion of each funnel was opened, and the crystals were naturally dropped from the outlets. This operation was carried out 5 times, using each of the above described funnels having cylindrical portions with inside diameters of 4, 5, 6, 8, 9 and 11 mm. Flow limit diameter (mm) was defined as a minimum inside diameter capable of naturally dropping the total amount of chloromandelic acid crystals in all of the above 5 tests with no blockage in the funnels. The flow limit diameter was defined as an index of fluidity.

The nature of series [5]: Measurement of particle size distribution (sieving). The settings on record: for Particle size distribution 300 to 1,000 μm: sieve fraction 300 to 1,000 μm; for Particle size distribution <300 μm: sieve fraction <300 μm; for Particle size distribution 1,000 μm<: sieve fraction above 1,000 μm. On the procedure: Measurement of Particle Size Distribution
The crystals were shifted using a microtype electromagnetic vibrating shifter (M-2 type, manufactured by Tsutsui Rikagaku Kikai Co., Ltd.), and their weight was measured, so that their particle size distribution was obtained. 20 g of the crystals was placed on a sieve with a mesh of 1,000 μm, and another sieve with a mesh of 300 μm was placed below the above sieve followed by vibration for 10 minutes.

The nature of series [6]: Measurement of filling (packing) density. The settings on record: natural drop into 50 ml measuring cylinder. The procedure: Measurement of Filling (Packing) Density
10 to 20 g of each of the crystals obtained in the above Examples and Comparative examples was weighed, and it was passed through a funnel with a diameter of 20 mm to naturally drop into a 50 ml measuring cylinder, so that the weight and volume of the crystals were measured and the filling density was calculated.

On to `O=C(O)[C@H](O)c1ccccc1Cl` [Example 6, (R)-2-chloromandelic acid], for which the Appearance result in the series “Appearance of crystals” is reported as “Granular”. The same compound came in with a Water content in series [1] of 0.080 wt %. For the same compound, the Adhesion rate in series [2] stood at 0.140%. Further, in series [3], the Compression rate is given as 0.03. This compound also registered a Flow limit diameter in series [4] of 5 mm. Further, in series [5], the “Particle size distribution 300 to 1,000 μm” value turned out to be 71.3 weight %, the “Particle size distribution <300 μm” value stood at 19.0 weight % and the “Particle size distribution 1,000 μm<” value is reported as 9.7 weight %. The compound further gave a Filling density in series [6] of 0.64 g/mL.
Turning to `O=C(O)[C@H](O)c1ccccc1Cl` [Example 3, (R)-2-chloromandelic acid], the Appearance result in the series “Appearance of crystals” is “Granular”. Moreover, the Water content in series [1] was 0.058 wt %. The same compound yielded an Adhesion rate in series [2] of 0.058%. The compound further gave a Compression rate in series [3] of 0.03. This compound also came in with a Flow limit diameter in series [4] of 5 mm. Moreover, in series [5], the “Particle size distribution 300 to 1,000 μm” value is on record as 71.0 weight %, the “Particle size distribution <300 μm” value amounted to 16.6 weight % and the “Particle size distribution 1,000 μm<” value stood at 12.4 weight %. Moreover, the Filling density in series [6] turned out to be 0.63 g/mL.
`O=C(O)[C@H](O)c1ccccc1Cl` [Example 4, (R)-2-chloromandelic acid]: the Appearance result in the series “Appearance of crystals” is reported as “Granular”. The Water content in series [1] turned out to be 0.062 wt %. Besides, the “Water content of crystal wet product” value in series [1] (wet product after filtration and washing, before drying) is given as 10 % by weight. The Adhesion rate in series [2] came to 0.110%. Further, the Compression rate in series [3] is listed as 0.03. Besides, in series [4], the Flow limit diameter is on record as 5 mm. In series [5], the “Particle size distribution 300 to 1,000 μm” value is listed as 72.2 weight %, the “Particle size distribution <300 μm” value worked out at 17.3 weight % and the “Particle size distribution 1,000 μm<” value worked out at 10.5 weight %. Moreover, the Filling density in series [6] came to 0.68 g/mL.
On to `O=C(O)[C@H](O)c1ccccc1Cl` [Example 2, (R)-2-chloromandelic acid], for which the Appearance entry in the series “Appearance of crystals” is “Granular”. This compound displayed a Water content in series [1] of 0.049 wt %. The compound also returned an Adhesion rate in series [2] of 0.061%. Also, the Compression rate in series [3] is on record as 0.03. In addition, the Flow limit diameter in series [4] is listed as 5 mm. In addition, in series [5], the “Particle size distribution 300 to 1,000 μm” value is recorded as 73.2 weight %, the “Particle size distribution <300 μm” value was found to be 18.2 weight % and the “Particle size distribution 1,000 μm<” value is given as 8.0 weight %. In addition, the Filling density in series [6] turned out to be 0.63 g/mL.
As for `O=C(O)[C@H](O)c1ccccc1Cl` [Example 1, (R)-2-chloromandelic acid], the Appearance result in “Appearance of crystals” is “Granular”. Besides, the Water content in series [1] amounted to 0.046 wt %. Also, the Adhesion rate in series [2] came to 0.057%. The Compression rate in series [3] is recorded as 0.03. The Flow limit diameter in series [4] turned out to be 5 mm. Further, in series [5], the “Particle size distribution 300 to 1,000 μm” value came out at 73.5 weight %, the “Particle size distribution <300 μm” value is given as 15.5 weight % and the “Particle size distribution 1,000 μm<” value is 11.0 weight %. The Filling density in series [6] amounted to 0.65 g/mL.
For the compound `O=C(O)[C@H](O)c1ccccc1Cl` [Example 5, (R)-2-chloromandelic acid], the Appearance result in the series “Appearance of crystals” is given as “Granular”. This compound also displayed a Water content in series [1] of 0.076 wt %. Besides, in series [2], the Adhesion rate worked out at 0.130%. Also, the Compression rate in series [3] stood at 0.03. This compound also showed a Flow limit diameter in series [4] of 5 mm. Further, in series [5], the “Particle size distribution 300 to 1,000 μm” value was found to be 73.1 weight %, the “Particle size distribution <300 μm” value is 18.4 weight % and the “Particle size distribution 1,000 μm<” value is given as 8.5 weight %. This compound displayed a Filling density in series [6] of 0.68 g/mL.
Consider `O=C(O)[C@H](O)c1ccccc1Cl` [compound 1, (R)-2-chloromandelic acid, reference compound], for which the Appearance entry in “Appearance of crystals” is reported as “Fine”. For the same compound, in series [1], the Water content amounted to 0.110 wt %. The compound also gave an Adhesion rate in series [2] of 0.830%. The compound also had a Compression rate in series [3] of 0.04. For the same compound, the Flow limit diameter in series [4] came to 9 mm. Also, in series [5], the “Particle size distribution 300 to 1,000 μm” value amounted to 46.5 weight %, the “Particle size distribution <300 μm” value is given as 46.2 weight % and the “Particle size distribution 1,000 μm<” value stood at 7.3 weight %. This compound yielded a Filling density in series [6] of 0.68 g/mL.
Turning to `O=C(O)[C@H](O)c1ccccc1Cl` [compound 2, (R)-2-chloromandelic acid, reference compound], in the series “Appearance of crystals”, the Appearance result is recorded as “Scale”. The compound further showed a Water content in series [1] of 0.005 wt %. In series [2], the Adhesion rate turned out to be 0.500%. In series [3], this compound registered a Compression rate of 0.62. For the same compound, the Flow limit diameter in series [4] is 11 mm. Moreover, in series [5], the “Particle size distribution 300 to 1,000 μm” value is reported as 71.3 weight %, the “Particle size distribution <300 μm” value came out at 24.6 weight % and the “Particle size distribution 1,000 μm<” value was determined as 4.1 weight %. For the same compound, in series [6], the Filling density is 0.29 g/mL.
